Reference: ChEMBL document CHEMBL4342443, “Phloroglucinol Benzophenones and Xanthones from the Leaves of Garcinia cowa and Their Nitric Oxide Production and α-Glucosidase Inhibitory Activities” (J Nat Prod, 2020)
The source made the active and inactive calls. No cut-off for these calls is given here.

How the values were obtained:
Alpha glucosidase [1] = molecular target: T1, Alpha glucosidase (Homo sapiens, UniProt O43451+P10253+P14410+Q2M2H8); assay: Inhibition of alpha-glucosidase (unknown origin) using p-nitrophenyl alpha-D-glucoside as substrate preincubated for 0.5 hrs followed substrate addition and measured after 1 hr by colorimetric method; format: protein assay
RAW264.7 [2] = assay: Inhibition of NO production in LPS-stimulated mouse RAW264.7 cells at > 100 uM incubated for 24 hrs by Griess reagent-based assay; format: functional, cell-based
RAW264.7 [3] = assay: Inhibition of NO production in LPS-stimulated mouse RAW264.7 cells incubated for 24 hrs by Griess reagent-based assay; format: functional, cell-based; settings: RAW264.7, 24 h
Alpha glucosidase [4] = molecular target: T1, Alpha glucosidase; assay: Inhibition of alpha-glucosidase (unknown origin) at > 100 uM using p-nitrophenyl alpha-D-glucoside as substrate preincubated for 0.5 hrs followed substrate addition and measured after 1 hr by colorimetric method; format: protein assay

Question: Which IC50 (Alpha glucosidase [1]) does the source give for `COc1c(O)cc2oc3cc(O)c(CC=C(C)C)c(O)c3c(=O)c2c1C/C=C(\C)CCC=C(C)C` [COWANIN] here?
Answer: The IC50 was 37.4 µM.

Question: And the inhibition (RAW264.7 [2])?
Answer: Its inhibition is “inactive”.

Question: Which IC50 (Alpha glucosidase [1]) does the source give for `COc1c(O)cc2oc3cc(O)c(C/C=C(\C)CO)c(O)c3c(=O)c2c1C/C=C(\C)CCC=C(C)C` here?
Answer: Its IC50 is 28.7 µM.

Question: What about the IC50 (RAW264.7 [3]) of the same compound?
Answer: Its IC50 is 13.4 µM.

Question: What does the source list for `CC(C)=CCC/C(C)=C/Cc1c(O)cc2oc3c(O)cccc3c(=O)c2c1O`?
Answer: inhibition (RAW264.7 [2]): inactive; inhibition (Alpha glucosidase [4]): inactive

Question: For `CC(C)(O)CCC[C@@]1(C)[C@H](CCC(C)(C)O)C[C@@]23CCC(C)(C)OC2=C(C(=O)c2ccccc2)C(=O)[C@@H]1C3=O`, which inhibition (RAW264.7 [2]) is on record?
Answer: The inhibition was “inactive”.

Question: And the inhibition (Alpha glucosidase [4])?
Answer: Its inhibition is “inactive”.

Question: `CC(C)=CC[C@@H]1C[C@@]23CCC(C)(C)OC2=C(C(=O)c2ccccc2)C(=O)[C@H](C3=O)[C@@]1(C)CCCC(C)(C)O` was tested. Which IC50 (RAW264.7 [3]) did it give?
Answer: Its IC50 is 11 µM.

Question: And the inhibition (Alpha glucosidase [4])?
Answer: The inhibition was “inactive”.

Question: How did the IC50 (Alpha glucosidase [1]) turn out when `CC(C)=CCC/C(C)=C/CC/C(C)=C/CCC(C)(O)CCc1c(O)c(O)cc2oc3cc(O)cc(O)c3c(=O)c12` (racemic) was run?
Answer: The IC50 was 15.4 µM.

Question: What about the IC50 (RAW264.7 [3]) of the same compound?
Answer: The IC50 was 5.8 µM.

Question: Which IC50 (Alpha glucosidase [1]) does the source give for `CC(C)=CCC/C(C)=C/CC/C(C)=C/Cc1c(O)c(O)cc2oc3cc(O)cc(O)c3c(=O)c12` here?
Answer: Its IC50 is 76.2 µM.

Question: And the inhibition (RAW264.7 [2])?
Answer: Its inhibition is “inactive”.

Question: `CC(C)=CCC/C(C)=C/CCC(C)(O)CCc1c(O)c(O)cc2oc3cc(O)cc(O)c3c(=O)c12` (racemic) was tested. Which IC50 (Alpha glucosidase [1]) did it give?
Answer: The IC50 was 25.4 µM.

Question: And the IC50 (RAW264.7 [3])?
Answer: The IC50 was 7.7 µM.

Question: What does the source list for `CC1(C)CCc2c(cc3oc4c(O)c(O)ccc4c(=O)c3c2O)O1`?
Answer: inhibition (RAW264.7 [2]): inactive; inhibition (Alpha glucosidase [4]): inactive

Question: Which results are given for `COc1c(O)cc2oc3cc4c(c(O)c3c(=O)c2c1CC=C(C)C)C=CC(C)(C)O4` [MANGOSTANIN]?
Answer: IC50 (Alpha glucosidase [1]): 11.4 µM; IC50 (RAW264.7 [3]): 18.6 µM

Question: Which IC50 (RAW264.7 [3]) does the source give for `N=C(N)NN` [PIMAGEDINE] here?
Answer: The IC50 was 19.9 µM.

Question: What does the source list for `COc1c(O)cc2oc3cc(O)c(CCC(C)(C)O)c(O)c3c(=O)c2c1CC=C(C)C`?
Answer: IC50 (RAW264.7 [3]): 5.4 µM; inhibition (Alpha glucosidase [4]): inactive

Question: `COc1cc2oc3cc(O)c(OC)c(CC=C(C)C)c3c(=O)c2c(O)c1CC=C(C)C` was tested. Which IC50 (Alpha glucosidase [1]) did it give?
Answer: The IC50 was 22.6 µM.

Question: And the inhibition (RAW264.7 [2])?
Answer: Its inhibition is “inactive”.
